Results on 15 compounds are retold here after ChEMBL document CHEMBL1141380 (J Med Chem, 2007).

Converted amounts (≈) assume the structure as drawn.

Data set [1] is described as follows: Clearance in iv dosed rat. As to conditions: in vivo. The class given is ADME, organism-based.
Data set [2] is described as follows: Oral bioavailability in Sprague-Dawley rat at 10 mg/kg, po. The class given is ADME, organism-based. As to conditions: in vivo.
Data set [3] addresses Vascular endothelial growth factor receptor 2 (Homo sapiens, UniProt P35968).
Description: Inhibition of KDR by HTRF assay
Data set [4] concerns the target T1, Angiopoietin-1 receptor (Homo sapiens, UniProt Q02763). Nature of the data set: Inhibition of Tie2 by HTRF assay.
Data set [5] concerns the target T1, Angiopoietin-1 receptor. Nature of the data set: Inhibition of angiopoietin-1-stimulated Tie2 phosphorylation in EA.hy926 cells. The format is functional, cell-based.
The target of data set [6] is Vascular endothelial growth factor receptor 2 and tyrosine-protein kinase TIE-2 (KDR and TIE2) (Homo sapiens) (UniProt P35968+Q02763). The data set can be described thus: Selectivity for Tie2 over KDR. The format is protein assay.
A short description of data set [7]: Solubility in 0.01N HCl. The format is physicochemical.

T1 sequence (Q02763 whole entry): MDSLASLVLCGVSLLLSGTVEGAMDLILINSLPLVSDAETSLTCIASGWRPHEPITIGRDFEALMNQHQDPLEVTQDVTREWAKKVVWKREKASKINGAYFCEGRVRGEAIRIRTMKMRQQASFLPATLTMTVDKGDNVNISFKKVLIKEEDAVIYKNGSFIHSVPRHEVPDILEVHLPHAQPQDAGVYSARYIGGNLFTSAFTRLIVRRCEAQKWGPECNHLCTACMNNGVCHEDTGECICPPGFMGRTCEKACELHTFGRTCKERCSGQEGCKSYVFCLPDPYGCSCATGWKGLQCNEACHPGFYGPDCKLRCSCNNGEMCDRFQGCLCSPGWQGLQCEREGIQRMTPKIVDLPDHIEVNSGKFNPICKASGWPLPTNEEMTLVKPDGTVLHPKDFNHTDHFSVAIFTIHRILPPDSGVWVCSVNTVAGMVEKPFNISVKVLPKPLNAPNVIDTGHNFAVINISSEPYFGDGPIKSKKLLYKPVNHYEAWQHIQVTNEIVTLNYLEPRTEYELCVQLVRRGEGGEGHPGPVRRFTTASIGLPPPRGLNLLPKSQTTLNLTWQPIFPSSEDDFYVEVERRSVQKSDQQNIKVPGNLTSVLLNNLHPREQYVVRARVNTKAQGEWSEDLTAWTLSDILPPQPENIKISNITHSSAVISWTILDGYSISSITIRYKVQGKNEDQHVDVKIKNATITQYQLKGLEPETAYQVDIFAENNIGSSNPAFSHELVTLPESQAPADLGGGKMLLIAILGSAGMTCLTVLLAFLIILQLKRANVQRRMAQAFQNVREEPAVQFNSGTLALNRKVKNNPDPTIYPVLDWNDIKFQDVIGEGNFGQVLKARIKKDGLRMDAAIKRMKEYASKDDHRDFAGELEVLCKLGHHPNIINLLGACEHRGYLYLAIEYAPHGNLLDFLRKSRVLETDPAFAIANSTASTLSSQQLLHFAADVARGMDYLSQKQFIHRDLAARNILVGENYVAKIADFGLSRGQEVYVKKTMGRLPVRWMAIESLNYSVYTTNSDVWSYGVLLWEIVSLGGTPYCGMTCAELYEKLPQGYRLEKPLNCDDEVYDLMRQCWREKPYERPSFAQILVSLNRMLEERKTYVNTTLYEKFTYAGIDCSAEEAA
Sequence of Vascular endothelial growth factor receptor 2 (P35968 whole entry): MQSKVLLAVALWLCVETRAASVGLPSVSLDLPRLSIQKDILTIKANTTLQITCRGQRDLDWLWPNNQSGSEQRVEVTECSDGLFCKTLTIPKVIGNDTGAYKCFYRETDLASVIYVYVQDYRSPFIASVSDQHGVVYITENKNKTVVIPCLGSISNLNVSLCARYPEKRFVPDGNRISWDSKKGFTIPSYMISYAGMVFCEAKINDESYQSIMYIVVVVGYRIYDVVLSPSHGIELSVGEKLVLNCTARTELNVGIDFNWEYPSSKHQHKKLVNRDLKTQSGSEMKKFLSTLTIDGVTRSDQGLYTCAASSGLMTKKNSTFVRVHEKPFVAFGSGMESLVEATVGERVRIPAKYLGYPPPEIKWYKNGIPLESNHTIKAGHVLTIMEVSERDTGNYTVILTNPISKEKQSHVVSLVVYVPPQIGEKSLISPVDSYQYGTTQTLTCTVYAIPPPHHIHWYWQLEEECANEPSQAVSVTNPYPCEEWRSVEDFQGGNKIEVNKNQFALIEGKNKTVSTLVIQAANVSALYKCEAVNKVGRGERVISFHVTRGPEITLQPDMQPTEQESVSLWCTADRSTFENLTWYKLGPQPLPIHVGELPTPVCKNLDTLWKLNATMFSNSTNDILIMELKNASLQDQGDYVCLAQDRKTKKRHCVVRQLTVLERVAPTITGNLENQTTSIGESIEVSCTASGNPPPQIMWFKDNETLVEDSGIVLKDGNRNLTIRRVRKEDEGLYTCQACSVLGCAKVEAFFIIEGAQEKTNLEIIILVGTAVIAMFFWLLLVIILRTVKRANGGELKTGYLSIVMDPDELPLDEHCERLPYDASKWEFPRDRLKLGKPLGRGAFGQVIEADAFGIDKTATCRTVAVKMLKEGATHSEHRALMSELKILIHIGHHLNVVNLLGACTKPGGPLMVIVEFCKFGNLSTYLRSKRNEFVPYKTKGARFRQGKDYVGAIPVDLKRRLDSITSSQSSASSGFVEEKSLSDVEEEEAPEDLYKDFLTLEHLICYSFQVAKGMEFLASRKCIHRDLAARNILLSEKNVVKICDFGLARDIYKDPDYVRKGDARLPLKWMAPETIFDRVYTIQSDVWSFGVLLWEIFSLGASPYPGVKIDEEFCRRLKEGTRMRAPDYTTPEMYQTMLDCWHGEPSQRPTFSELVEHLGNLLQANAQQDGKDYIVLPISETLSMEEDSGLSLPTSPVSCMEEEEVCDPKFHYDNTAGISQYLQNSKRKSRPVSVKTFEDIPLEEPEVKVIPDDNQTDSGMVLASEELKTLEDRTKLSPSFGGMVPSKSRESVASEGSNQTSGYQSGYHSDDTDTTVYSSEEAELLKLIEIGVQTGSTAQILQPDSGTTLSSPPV
Sequence of Vascular endothelial growth factor receptor 2 and tyrosine-protein kinase TIE-2 (KDR and TIE2) (Homo sapiens) (P35968 whole entry, looked up): as the sequence (P35968 whole entry) above
Sequence of Vascular endothelial growth factor receptor 2 and tyrosine-protein kinase TIE-2 (KDR and TIE2) (Homo sapiens) (Q02763 whole entry, looked up): as the sequence (Q02763 whole entry) above

The compound `CNc1nccc(-c2cccnc2Oc2ccc(F)c(C(=O)Nc3cc(C(F)(F)F)ccc3N(C)CCCN(C)C)c2)n1` gave a clearance in data set [1] of 12 mL/min/kg. Besides, the bioavailability in data set [2] amounted to 32%. In addition, inhibition in data set [3] was half-maximal at 46 nM (IC50).

As to `COc1cc(Nc2ncnc(-c3cccnc3Nc3cccc(C(=O)Nc4ccc(Oc5ccccc5)cc4)c3)n2)cc(OC)c1OC`, the IC50 in data set [4] was found to be 85 nM; in data set [3] it was 38 nM.

Consider `CNc1ncnc(-c2cccnc2Oc2cc(C(=O)Nc3cccc(C(F)(F)F)c3)ccc2C)n1`, for which the IC50 stood at 10 nM in data set [4], 38 nM in data set [5] and 97 nM in data set [3].

Turning to `CNc1nccc(-c2cccnc2Oc2cc(C(=O)Nc3cc(C(F)(F)F)ccc3N3CCCCC3)ccc2Cl)n1`, the clearance in data set [1] is 21.6 mL/min/kg. This compound also came in with an IC50 in data set [3] of 675 nM.

`CNc1cc(-c2cccnc2Oc2cc(C(=O)Nc3cc(C4CCCCC4)ccc3OC)ccc2C)ccn1` gave a clearance in data set [1] of 98.3 mL/min/kg. Further, the IC50 in data set [3] was over 25000 nM.

On to `CNc1nccc(-c2cccnc2Oc2cc(C(=O)Nc3cc(C(F)(F)F)ccc3N3CCCCC3)ccc2F)n1`, for which the clearance in data set [1] is 25.6 mL/min/kg. The IC50 in data set [3] stood at 2000 nM.

Compound `Cc1ccc(C(=O)Nc2cc(C(F)(F)F)ccc2N2CCCCC2)cc1Oc1ncccc1-c1ccncn1` displayed a half-inhibitory concentration (IC50) in data set [3] of 1300 nM.

For `Cc1ccc(C(=O)Nc2cc(C(F)(F)F)ccc2N2CCCCC2)cc1Nc1ncccc1-c1ccncn1`, the IC50 in data set [4] is 181 nM; in data set [3], over 25000 nM. In addition, the Selectivity ratio in data set [6] is over 100.

For the compound `CNc1nccc(-c2cccnc2Oc2cccc(C(=O)Nc3cc(C(F)(F)F)ccc3N3CCCCC3)c2)n1`, the IC50 in data set [4] was 99 nM; in data set [5] it was 368 nM; in data set [3], over 8000 nM. For the same compound, the clearance in data set [1] was 54 mL/min/kg.

Take `COc1ccc(C(F)(F)F)cc1NC(=O)c1ccc(C)c(Nc2ncccc2-c2ccncn2)c1`: the midpoint of inhibition in data set [3], the IC50, lay at 58 nM.

Consider `CNc1ncnc(-c2cccnc2Oc2cc(C(=O)Nc3cc(C(F)(F)F)ccc3N(C)CCCN(C)C)ccc2C)n1`, for which the IC50 in data set [4] came to 59 nM; in data set [5], 140 nM; in data set [3], 4000 nM. The same compound showed a clearance in data set [1] of 15.3 mL/min/kg.

`CNc1ncnc(-c2cccnc2Oc2ccc(F)c(C(=O)Nc3cc(C(F)(F)F)ccc3N3CCCCC3)c2)n1` gave an IC50 in data set [3] of over 25000 nM.

For `CNc1nccc(-c2cccnc2Oc2ccc(F)c(C(=O)Nc3cc(C(F)(F)F)ccc3N3CCCCC3)c2)n1`, the IC50 is 40 nM in data set [4], 244 nM in data set [5] and over 25000 nM in data set [3]. This compound also gave a clearance in data set [1] of 5.67 mL/min/kg. In addition, the Selectivity ratio in data set [6] was over 500. This compound also came in with a bioavailability in data set [2] of 0.3%.

In turn, `COc1ccc(C(F)(F)F)cc1NC(=O)c1ccc(C)c(Oc2ncccc2-c2ccncn2)c1` gave an IC50 in data set [3] of 100 nM.

As to `Cc1ccc(C(=O)Nc2ccc(C(F)(F)F)cc2)cc1Oc1ncccc1-c1ccncn1`, the solubility in data set [7] worked out at 5 µg/mL (≈ 11.1 µM). In data set [3], this compound returned a concentration for half-maximal inhibition (IC50) of 705 nM.
